This passage reports viability results from patent publication US20180186815A1, “PHARMACEUTICAL COMPOSITIONS, METHODS FOR THEIR PREPARATION AND THEIR USE IN THE TREATMENT OF CANCER” (Urifer Ltd., priority 2016, published 2018).

Like-named read-outs stand apart in the source and are kept apart here.

Holding throughout (assay type): cell-based
The nature of series [1]: Viability of FS non malignant fibroblastic cells, XTT test. Particulars: FS cells (non-malignant fibroblastic cell line), Control DMSO = 100%, read-out: percentage of viable cells, FS. A digest of the protocol: (§1)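 Cells were seeded and grown untreated overnight, then exposed to compounds at a final 5 μM (0.4% v/v DMSO). Untreated and 0.4% DMSO-only cells were the controls. Percent viable cells was measured by XTT 96 h after compound addition.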

The test system of series [2] is colon cancer cell line HT29. The series can be described thus: Growth profile / viability of HT29 colon cancer cells, XTT test. The note with it: Homo sapiens, HT-29, 96 h, Control DMSO = 100%, read-out: percentage of viable cells, HT29. A digest of the protocol:
as §1
Background: Formazan colour is commonly taken as a measure of viable cells.

In series [3] the test system is colon cancer cell line RKO. The series can be described thus: Growth profile / viability of RKO colon cancer cells, XTT test. Particulars: 96 h, Control DMSO = 100%, read-out: percentage of viable cells, RKO. A digest of the protocol:
as §1

Series [4] relates to colon cancer cell line HCT 116. The series can be described thus: Growth profile / viability of HCT116 colon cancer cells, XTT test. Particulars: Homo sapiens, HCT-116, 96 h, Control DMSO = 100%, read-out: percentage of viable cells, HCT116. In a few lines:
as §1

As to `CC(C)c1ccc(-c2cn3nc(N4CCC(C(=O)N5CCN(c6ccccn6)CC5)CC4)sc3n2)cc1` [Compound Z522-0223, 6-(4-isopropyl-phenyl)-2-{4-[(4-pyridin-2-ylpiperazin-1-yl)carbonyl]piperidin-1-yl}imidazo[2,1-b][1,3,4]thiadiazole], the viability at 96 h, 5 µM in series [1] (first FS column) worked out at 87%; in series [1] (second FS column), 92%. The viability at 5 µM was determined as 83% in series [2] (first HT29 column); 89% in series [2] (second HT29 column); 64% in series [3] (first RKO column); 81% in series [3] (second RKO column); 75% in series [4] (first HCT116 column); 80% in series [4] (second HCT116 column).
Turning to `CC(C)c1ccc(-c2cn3nc(N4CCC(C(=O)N(C)CCc5ccccn5)CC4)sc3n2)cc1` [Compound Z522-0226, 1-[6-(4-isopropylphenyl)imidazo[2,1-b][1,3,4]thiadiazol-2-yl]-N-methyl-N-(2-pyridin-2-ylethyl)piperidine-4-carboxamide], the viability at 96 h, 5 µM amounted to 91% in series [1] (first FS column) and 99% in series [1] (second FS column). Moreover, the viability at 5 µM in series [2] (first HT29 column) was determined as 101%; in series [2] (second HT29 column), 92%; in series [3] (first RKO column), 72%; in series [3] (second RKO column), 64%; in series [4] (first HCT116 column) it was 80%; in series [4] (second HCT116 column) it was 80%.
Regarding `CC(C)c1ccc(-c2cn3nc(N4CCC(C(=O)N5CCN(c6ncccn6)CC5)CC4)sc3n2)cc1` [Compound Z522-0227, 6-(4-isopropyl-phenyl)-2-{4-[(4-pyrimidin-2-ylpiperazin-1-yl)carbonyl]piperidin-1-yl}imidazo[2,1-b][1,3,4]thiadiazole], the viability at 96 h, 5 µM was 89% in series [1] (first FS column) and 91% in series [1] (second FS column). Also, the viability at 5 µM was found to be 91% in series [2] (first HT29 column); 91% in series [2] (second HT29 column); 63% in series [3] (first RKO column); 63% in series [3] (second RKO column); 72% in series [4] (first HCT116 column); 84% in series [4] (second HCT116 column).
Regarding `CC(C)c1ccc(-c2cn3nc(N4CCC(C(=O)N(C)CCc5ccncc5)CC4)sc3n2)cc1` [Compound Z522-0228, 1-[6-(4-isopropylphenyl)imidazo[2,1-b][1,3,4]thiadiazol-2-yl]-N-methyl-N-(2-pyridin-4-ylethyl)piperidine-4-carboxamide], the figures for the viability at 96 h, 5 µM in series [1] (first FS column) and in series [1] (second FS column) were 111% and 113%, respectively. For the same compound, the viability at 5 µM in series [2] (first HT29 column) was 58%; in series [2] (second HT29 column), 61%; in series [3] (first RKO column) it was 51%; in series [3] (second RKO column) it was 55%; in series [4] (first HCT116 column) it was 82%; in series [4] (second HCT116 column), 70%.
As to `CC(C)c1ccc(-c2cn3nc(N4CCC(C(=O)N5CCN(CCN(C)C)CC5)CC4)sc3n2)cc1` [Compound Z522-0229, {2-[4-({1-[6-(4-isopropylphenyl)imidazo[2,1-b][1,3,4]thiadiazol-2-yl]piperidin-4-yl}carbonyl)piperazin-1-yl]ethyl} dimethylamine], the viability at 96 h, 5 µM in series [1] (first FS column) is 79%; in series [1] (second FS column), 101%. The viability at 5 µM was determined as 74% in series [2] (first HT29 column); 77% in series [2] (second HT29 column); 45% in series [3] (first RKO column); 47% in series [3] (second RKO column); 87% in series [4] (first HCT116 column); 99% in series [4] (second HCT116 column).
On to `Cc1ccc(C)n1CCN1CCN(C(=O)C2CCN(c3nn4cc(-c5ccc(C(C)C)cc5)nc4s3)CC2)CC1` [Compound Z522-0232, 2-[4-({4-[2-(2,5-dimethyl-1H-pyrrol-1-yl)ethyl]piperazin-1-yl}carbonyl)piperidin-1-yl]-6-(4-isopropylphenyl) imidazo[2,1-b][1,3,4]thiadiazole], for which the viability at 96 h, 5 µM turned out to be 106% in series [1] (first FS column) and 93% in series [1] (second FS column). Moreover, the viability at 5 µM in series [2] (first HT29 column) is 20%; in series [2] (second HT29 column), 22%; in series [3] (first RKO column), 35%; in series [3] (second RKO column) it was 38%; in series [4] (first HCT116 column), 79%; in series [4] (second HCT116 column) it was 68%.
With `CC(C)c1ccc(-c2cn3nc(N4CCC(C(=O)N5CCCCC5CCN5CCCCC5)CC4)sc3n2)cc1` (stereo not shown) [Compound Z522-0233, 6-(4-isopropylphenyl)-2-(4-{[2-(2-piperidin-1-ylethyl)piperidin-1-yl]carbonyl}piperidin-1-yl)imidazo[2,1-b][1,3,4]thiadiazole], in series [1] (second FS column), the viability at 96 h, 5 µM was determined as 3%. The viability at 5 µM in series [2] (first HT29 column) turned out to be 1%; in series [2] (second HT29 column) it was 0%; in series [3] (second RKO column), 0%; in series [4] (first HCT116 column), 1%.
For `CC(C)c1ccc(-c2cn3nc(N4CCC(C(=O)N5CCCC(CN6CCOCC6)C5)CC4)sc3n2)cc1` (stereo not shown) [Compound Z522-0237, 6-(4-isopropyl-phenyl)-2-(4-{[3-(morpholin-4-yl-methyl)piperidin-1-yl]carbonyl}piperidin-1-yl)imidazo[2,1-b][1,3,4]thiadiazole], the viability at 96 h, 5 µM came out at 82% in series [1] (first FS column) and 105% in series [1] (second FS column). For the same compound, the viability at 5 µM was found to be 13% in series [2] (first HT29 column); 8% in series [2] (second HT29 column); 11% in series [3] (first RKO column); 8% in series [3] (second RKO column); 74% in series [4] (first HCT116 column); 89% in series [4] (second HCT116 column).
For the compound `CC(C)c1ccc(-c2cn3nc(N4CCC(C(=O)N5CCN(CC(=O)N6CCN(C)CC6)CC5)CC4)sc3n2)cc1` [Compound Z522-0238, 6-(4-isopropylphenyl)-2-[4-({4-[2-(4-methylpiperazin-1-yl)-2-oxoethyl]piperazin-1-yl}carbonyl)piperidin-1-yl]imidazo[2,1-b][1,3,4]thiadiazole], the viability at 96 h, 5 µM in series [1] (first FS column) was 85%; in series [1] (second FS column), 99%. Besides, the viability at 5 µM in series [2] (first HT29 column) amounted to 6%; in series [2] (second HT29 column), 7%; in series [3] (first RKO column) it was 1%; in series [3] (second RKO column) it was 3%; in series [4] (first HCT116 column) it was 54%; in series [4] (second HCT116 column) it was 49%.
Consider `CC(C)c1ccc(-c2cn3nc(N4CCC(C(=O)N(C)CC(=O)NCCN(C)C)CC4)sc3n2)cc1` [Compound Z522-0239, N^4-(2-[2-(dimethylamino)ethyl]amino-2-oxoethyl)-1-[6-(4-isopropylphenyl)imidazo[2,1-b][1,3,4]thiadiazol-2-yl]-N^4-methyl-4-piperidinecarboxamide], for which the viability at 96 h, 5 µM in series [1] (first FS column) was determined as 83%; in series [1] (second FS column) it was 96%. The viability at 5 µM in series [2] (first HT29 column) came to 3%; in series [2] (second HT29 column), 2%; in series [3] (first RKO column), 1%; in series [3] (second RKO column), 1%; in series [4] (first HCT116 column), 80%; in series [4] (second HCT116 column), 45%.
As for `CC(C)c1ccc(-c2cn3nc(N4CCC(C(=O)N(C)CC(=O)N5CCN(C)CC5)CC4)sc3n2)cc1` [Compound Z522-0240, 1-[6-(4-isopropylphenyl)imidazo[2,1-b][1,3,4]thiadiazol-2-yl]-N^4-methyl-N^4-[2-(4-methyl-piperazino)-2-oxoethyl]-4-piperidinecarboxamide], the results for the viability at 96 h, 5 µM in series [1] (first FS column) and in series [1] (second FS column) were 80% and 101%, respectively. Besides, the viability at 5 µM in series [2] (first HT29 column) is 50%; in series [2] (second HT29 column), 53%; in series [3] (first RKO column) it was 19%; in series [3] (second RKO column) it was 15%; in series [4] (first HCT116 column) it was 82%; in series [4] (second HCT116 column), 68%.
For `CC(C)c1ccc(-c2cn3nc(N4CCC(C(=O)N5CCN(CC(=O)NCCN(C)C)CC5)CC4)sc3n2)cc1` [Compound Z522-0241, N-[2-(dimethylamino)ethyl]-2-[4-({1-[6-(4-isopropylphenyl)imidazo[2,1-b][1,3,4]thiadiazol-2-yl]piperidin-4-yl}carbonyl)piperazin-1-yl]acetamide], the viability at 96 h, 5 µM in series [1] (first FS column) was found to be 78%; in series [1] (second FS column) it was 88%. In addition, the viability at 5 µM in series [2] (first HT29 column) amounted to 0%; in series [2] (second HT29 column), 0%; in series [3] (second RKO column), 0%; in series [4] (first HCT116 column), 33%; in series [4] (second HCT116 column), 36%.
Take `CC(C)c1ccc(-c2cn3nc(N4CCC(C(=O)N5CCCN(c6ncccn6)CC5)CC4)sc3n2)cc1` [Compound Z522-0242, 6-(4-isopropylphenyl)-2-{4-[(4-pyrimidin-2-yl-1,4-diazepan-1-yl)carbonyl]piperidin-1-yl}imidazo[2,1-b][1,3,4]thiadiazole]: the viability at 96 h, 5 µM came to 89% in series [1] (first FS column) and 123% in series [1] (second FS column). For the same compound, the viability at 5 µM in series [2] (first HT29 column) is 72%; in series [2] (second HT29 column), 66%; in series [3] (first RKO column), 55%; in series [3] (second RKO column), 50%; in series [4] (first HCT116 column), 88%; in series [4] (second HCT116 column), 86%.
